In PMC8270262 (Molecules, 2021):
Entries after “also recorded” stand apart in the source; their conditions may differ.

Key:
SARS-CoV-2 PL^pro = SARS-CoV-2 PL^pro (Severe acute respiratory syndrome coronavirus 2, UniProt P0DTD1); experiment: biochemical
WNF protease = conditions: cited from earlier work
DENV protease = conditions: enzyme concentration 1 μM; cited from earlier work

| Compound | Effect of reducing agent on PLpro inhibition (in words) (SARS-CoV-2 PL^pro) | IC50 (SARS-CoV-2 PL^pro) | IC50 (WNF protease) | IC50 (DENV protease) |
| --- | --- | --- | --- | --- |
| Sc1ncc2[nH]cnc2n1 [2-MP, 2-mercaptopurine] | diminished; also recorded: significantly increases the IC50 values | 820 ± 600 nM |  |  |
| Sc1ncnc2nc[nH]c12 [6-MP, 6-mercaptopurine] |  | ~66000 nM |  |  |
| CCN(CC)C(=S)SSC(=S)N(CC)CC [Antabuse] | significantly increases the IC50 values |  |  |  |
| Aprotinin |  |  | 20 nM | 65 nM |
